According to patent publication US11000511B2, “Chemical compounds as antibiotics” (priority 2017, dated 2021):

Experiments:
[1] = target: T1, purified LasB protein from P. aeruginosa (Pseudomonas aeruginosa, UniProt P14756); experiment: Fluorometric assay to determine Ki (Assay 1); format: biochemical; details: Ki (μM) Assay 1, purified LasB, substrate Abz-Ala-Gly-Leu-Ala-p-Nitro-Benzyl-Amide 250 μM, Ki calculated from IC50; inhibitor 0.006 to 200 μM
T1 construct: purchased Merck or Charles River Laboratories
Experimental: (§1) Experiments were therefore conducted (1) to measure the potency of inhibition of compounds of the invention against purified Pseudomonas aeruginosa LasB enzyme and also experiments were conducted (2) to measure the ability of compounds of the invention to inhibit LasB-catalysed elastin degradation. The first assay uses a commercial fluorescent synthetic peptide and purified LasB enzyme. The LasB hydrolysis kinetics are measured allowing the determination of the IC50 and Ki of the inhibitors; the second is a more physiological assay using dialysed Pseudomonas aeruginosa supernatant as source of enzyme, plus its natural substrate Elastin. It is an “end point assay” that determines the percentage of LasB inhibition by each compound for one particular time point and inhibitor concentration. Technical details are described below:
This assay uses commercially available substrate (Abz-Ala-Gly-Leu-Ala-p-Nitro-Benzyl-Amide (Ex: 340 nm, Em: 415 nm) from Peptide International) and purified LasB protein from P. aeruginosa (provided by Merck or Charles River Laboratories). It is performed to determine LasB elastase activity and assess compound inhibition in 96-well plate format. Some compounds of Formula (I) were assessed using the method of Assay 1 (described below). Other compounds of Formula (I) were assessed using the alternative but equivalent method of Assay 2 (described below).
Method: 10 to 140 ng/ml purified LasB is incubated with 250 μM Abz-Ala-Gly-Leu-Ala-p-Nitro-Benzyl-Amide in 50 mM Tris-HCl pH 7.4, 2.5 mM CaCl2), 0.01% of Triton X100 at 37° C. LasB activity (corresponding to fluorescence emission induced by substrate hydrolysis) is measured over 30 min at 37° C. with a fluorescence plate reader such as the Perkin Elmer Envision or similar. Different range of inhibitor concentrations are routinely assessed depending of inhibitor potency from 0.006 to 200 μM (Assay 1; 2-fold dilutions series) or from 0.0016 to 200 μM (Assay 2; 2-fold dilutions series) in order to determine IC50.
The equation used to calculate the Ki from IC50 is: Ki=IC50/(1+([S]/Km)) where [S]=250 μM and Km=214 μM.

[2] = target: T2, LasB elastase activity in dialysed supernatant from P. aeruginosa strain PA01 (Pseudomonas aeruginosa, UniProt P14756); experiment: Elastin Congo Red assay to determine % inhibition (Assay 1); format: biochemical; details: read-out: Elastin hydrolysis % inhibition @ 50/25 μM inhibitor concentration Assay 1
T2 construct: uses as source of enzyme dialysed supernatant from P. aeruginosa; endogenous in cells; host or cells: P. aeruginosa strain PA01 culture supernatant, filtered and dialysed
Experimental: as §1
The Elastin assay uses as source of enzyme dialysed supernatant from P. aeruginosa and the elastin congo red as substrate. The natural LasB substrate, elastin, is complexed with the congo red dye (Elastin Congo Red, ECR). The elastolysis activity from the culture supernatant will degrade elastin and release the congo red dye into the supernatant. This red dye release can be measured with a spectrophotometer. Some compounds of Formula (I) were assessed using the method of Assay 1 (described below). Other compounds of Formula (I) were assessed using the alternative but equivalent method of Assay 2 (described below).
Method (Assay 1): To determine LasB elastase activity and assess compound inhibition, an overnight culture of P. aeruginosa strain PA01 is diluted thousand-fold in LB medium. This diluted solution is incubated during 19 hours in a shaking incubator. Culture supernatants are recovered by centrifugation and filtrated through a […] filter. These supernatants are dialysed (filtration molecules <20 kDa) into a 50 mM Tris pH 7.4, 2.5 mM CaCl2 solution at 4° C. under agitation for 24 hours. Supernatant dialysed is then mixed volume/volume with the ECR suspension (20 mg/mL of ECR in 100 mM Tris buffer supplemented with 1 mM CaCl2) supplemented with TritonX 100 (final concentration of 0.01%) in presence of different concentrations of compound (routinely 50 and 25 μM). The mixed reaction is then incubated for 24 hours in a 37° shaking incubator. As a negative control, the mixed supernatant is replaced by Tris solution (50 mM Tris pH 7.4, 2.5 mM CaCl2). The reaction supernatant is recovered by centrifugation and the release of congo red is measured by its absorbance at OD520. Percentage inhibition is determined using the following equation: (OD520 value of DMSO SN−OD520 value of LB)−(OD520 value of Compound SN−OD520 value of LB)/(OD520 value of DMSO SN−OD520 value of LB)×100.

T2 sequence (P14756 198-498): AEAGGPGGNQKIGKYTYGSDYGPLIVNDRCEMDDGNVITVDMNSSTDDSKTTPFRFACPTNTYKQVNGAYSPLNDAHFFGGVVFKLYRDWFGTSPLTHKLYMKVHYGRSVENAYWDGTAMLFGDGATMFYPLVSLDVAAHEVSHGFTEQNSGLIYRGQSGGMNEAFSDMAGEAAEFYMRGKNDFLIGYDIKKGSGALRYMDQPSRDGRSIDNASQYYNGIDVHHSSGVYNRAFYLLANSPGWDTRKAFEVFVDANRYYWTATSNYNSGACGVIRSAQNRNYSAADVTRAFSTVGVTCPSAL
T1 sequence (P14756 198-498): as above

Structure (SMILES) | Ki [1] [µM] | inhibition at 50 µM [2] [%]
CN1CCN(c2ccc3nc(CNC(=O)C4(CC(=O)O)Cc5ccccc5C4)sc3c2)CC1 [Example 42, 2-[2-[[6-(4-methylpiperazin-1-yl)-1,3-benzothiazol-2-yl]methylcarbamoyl]indan-2-yl]acetic acid] | 0.3 to 2 | > 60
C[N+](C)(C)C1CN(c2ccc3sc(CNC(=O)C4(CC(=O)[O-])Cc5ccccc5C4)nc3c2)C1 [Example 75, 2-[2-[[5-[3-(trimethylammonio)azetidin-1-yl]-1,3-benzothiazol-2-yl]methylcarbamoyl]indan-2-yl]acetate] | 0.3 to 2 | > 60
O=C(O)CC1(C(=O)NCc2nc3ccccc3[nH]2)Cc2ccccc2C1 [Example 51, 2-(2-(((1H-benzo[d]imidazol-2-yl)methyl)carbamoyl)-2,3-dihydro-1H-inden-2-yl)acetic] | 2 to 10 | 15 to 30
Cc1c(CNC(=O)C2(CC(=O)O)Cc3ccccc3C2)oc2ccccc12 [Example 11, 2-(2-{[2-(3-methyl-1-benzofuran-2-yl)methyl]carbamoyl}-2,3-dihydro-1H-inden-2-yl)acetic acid] | 0.3 to 2 | 30 to 60
O=C(O)CC1(C(=O)NCc2nc3ccccc3s2)Cc2ccccc2C1 [Example 10, 2-(2-{[(1,3-Benzothiazol-2-yl)methyl]carbamoyl}-2,3-dihydro-1H-inden-2-yl)acetic acid] | < 0.3 | > 60
O=C(O)CC1(C(=O)NCc2ccc3ccccc3n2)Cc2ccccc2C1 [Example 55, 2-(2-((quinolin-2-ylmethyl)carbamoyl)-2,3-dihydro-1H-inden-2-yl)acetic acid] | 0.3 to 2 | > 60
Cc1ccc2c(c1)CC(CNC(=O)C1(CC(=O)O)Cc3ccccc3C1)O2 (centres unmarked) [Example 7, 2-[2-[(5-methyl-2,3-dihydrobenzofuran-2-yl)methylcarbamoyl]indan-2-yl]acetic acid] | < 0.3 | > 60
C[N+](C)(C)C1CN(c2ccc3nc(CNC(=O)C4(CC(=O)[O-])Cc5ccccc5C4)sc3c2)C1 [Example 68, 2-[2-[[6-[3-(trimethylammonio)azetidin-1-yl]-1,3-benzothiazol-2-yl]methylcarbamoyl]indan-2-yl]acetate] | 0.3 to 2 | 30 to 60
O=C(O)CC1(C(=O)NCc2nc3c(s2)CNCC3)Cc2ccccc2C1 [Example 44, 2-[2-(4,5,6,7-tetrahydrothiazolo[5,4-c]pyridin-2-ylmethylcarbamoyl)indan-2-yl]acetic acid] | 2 to 10 | 15 to 30
CN(C)C[C@H]1C[C@H](c2ccc3nc(CNC(=O)C4(CC(=O)O)Cc5ccccc5C4)sc3c2)C1 [Example 91, 2-(2-(((6-((1 r,3r)-3-((dimethylamino)methyl)cyclobutyl)benzo[d]thiazol-2-yl)methyl)carbamoyl)-2,3-dihydro-1H-inden-2-yl)acetic acid] | < 0.3 | > 60
O=C(O)CC1(C(=O)NCc2nc3cnccc3s2)Cc2ccccc2C1 [Example 127, 2-[2-(thiazolo[4,5-c]pyridin-2-ylmethylcarbamoyl)indan-2-yl]acetic acid] | 0.3 to 2 | > 60
COc1cccc2sc(CNC(=O)C3(CC(=O)O)Cc4ccccc4C3)nc12 [Example 62, 2-(2-(((4-methoxybenzo[d]thiazol-2-yl)methyl)carbamoyl)-2,3-dihydro-1H-inden-2-yl)acetic acid] | < 0.3 | > 60
CN(C)CCc1ccc2nc(CNC(=O)C3(CC(=O)O)Cc4ccccc4C3)sc2c1 [Example 95, 2-[2-[[6-[2-(dimethylamino)ethyl]-1,3-benzothiazol-2-yl]methylcarbamoyl]indan-2-yl]acetic acid] | 0.3 to 2 | 30 to 60
NCCNc1ccc2nc(CNC(=O)C3(CC(=O)O)Cc4ccccc4C3)sc2c1 [Example 69, 2-[2-[[6-(2-aminoethylamino)-1,3-benzothiazol-2-yl]methylcarbamoyl]indan-2-yl]acetic acid] | 0.3 to 2 | > 60
CN(C)CCOc1ccc2nc(CNC(=O)C3(CC(=O)O)Cc4ccccc4C3)sc2c1 [Example 110, 2-[2-[[6-[2-(dimethylamino)ethoxy]-1,3-benzothiazol-2-yl]methylcarbamoyl]indan-2-yl]acetic acid] | 0.3 to 2 | 30 to 60
NCCc1ccc2nc(CNC(=O)C3(CC(=O)O)Cc4ccccc4C3)sc2c1 [Example 80, 2-[2-[[6-(2-aminoethyl)-1,3-benzothiazol-2-yl]methylcarbamoyl]indan-2-yl]acetic acid] | 0.3 to 2 | > 60
NC(=O)[C@H](Cc1ccc(O)cc1)NC(=O)C1(CC(=O)O)Cc2ccccc2C1 [Example 48, (S)-2-(2-((1-amino-3-(4-hydroxyphenyl)-1-oxopropan-2-yl)carbamoyl)-2,3-dihydro-1H-inden-2-yl)acetic acid] | 2 to 10 | 30 to 60
O=C(O)CC1(C(=O)NCc2cc3ccccc3cn2)Cc2ccccc2C1 [Example 2, 2-[2-(3-isoquinolylmethylcarbamoyl)indan-2-yl]acetic acid] | 0.3 to 2 | 30 to 60
Cc1ccc2oc(CNC(=O)C3(CC(=O)O)Cc4ccccc4C3)cc2c1 [Example 6, 2-(2-{[(5-methyl-1-benzofuran-2-yl)methyl]carbamoyl}-2,3-dihydro-1H-inden-2-yl)acetic acid] | < 0.3 | > 60
O=C(O)CC1(C(=O)N[C@@H](Cc2c[nH]c3ccccc23)C(=O)O)Cc2ccccc2C1 [Example 50, (2-(carboxymethyl)-2,3-dihydro-1H-indene-2-carbonyl)-L-tryptophan] | < 0.3 | > 60
NC/C=C/c1ccc2nc(CNC(=O)C3(CC(=O)O)Cc4ccccc4C3)sc2c1 [Example 39, 2-[2-[[6-[(E)-3-aminoprop-1-enyl]-1,3-benzothiazol-2-yl]methylcarbamoyl]indan-2-yl]acetic acid] | < 0.3 | > 60
Cc1cccc2sc(CNC(=O)C3(CC(=O)O)Cc4ccccc4C3)nc12 [Example 65, 2-(2-(((4-methylbenzo[d]thiazol-2-yl)methyl)carbamoyl)-2,3-dihydro-1H-inden-2-yl)acetic acid] | < 0.3 | > 60
C[N+](C)(C)CCc1ccc2nc(CNC(=O)C3(CC(=O)[O-])Cc4ccccc4C3)sc2c1 [Example 96, 2-[2-[[6-[2-(trimethylammonio)ethyl]-1,3-benzothiazol-2-yl]methylcarbamoyl]indan-2-yl]acetate] | 0.3 to 2 | 30 to 60
O=C(O)CC1(C(=O)NCCc2cc3ccccc3[nH]2)Cc2ccccc2C1 [Example 27, 2-[2-[2-(1H-indol-2-yl)ethylcarbamoyl]indan-2-yl]acetic acid] | 2 to 10 | 15 to 30
Cn1cc(CNC(=O)C2(CC(=O)O)Cc3ccccc3C2)cn1 [Example 3, 2-[2-[(1-methylpyrazol-4-yl)methylcarbamoyl]-indan-2-yl]acetic acid] | 2 to 10 | 30 to 60
